Like-named read-outs stand apart in the source and are kept apart here.
Experiments:
HIV-1 Y181C variant [1] = settings: MT-4 cells; Janssen 2005 / Ludovici 2001; read-out: previously reported EC50, Y181C; cited from earlier work
[2] = system: HIV-1 K103N/Y181C variant; settings: MT-4 cells; Janssen 2005 / Ludovici 2001; read-out: previously reported EC50, K103N/Y181C; cited from earlier work
MT-2 human T-cells = assay: Cytotoxicity, inhibition of MT-2 cell growth; settings: read-out: cytotoxicity (CC50); Table 4; human MT-2 cells
[3] = system: HIV-1 K103N/Y181C variant; assay: microbe, parasite or virus in culture; assay type: cell-based
wild-type HIV-1 = settings: MT-4 cells; Janssen 2005 / Ludovici 2001; read-out: previously reported EC50, wild-type; cited from earlier work
HIV-1 Y181C variant [4] = assay: microbe, parasite or virus in culture; assay type: cell-based
[5] = Cytotoxicity, inhibition of MT-2 cell growth; settings: human
[6] = Aqueous solubility, literature reports; assay type: physicochemical; settings: translated from 20 ng/mL at pH 7.0

Cc1cc(C)c(Nc2ccnc(Nc3ccc(C#N)cc3)n2)c(C)c1 [Compound 10a, dapivirine, reference compound]
EC50 (HIV-1 Y181C variant [1]): 7 nM | EC50 [2]: 54 nM | CC50 (MT-2 human T-cells): 2000 nM | EC50 ([3]; Human immunodeficiency virus 1, MT2, read-out: EC50, K103N/Y181C variant): 39 nM | EC50 ([3]; Human immunodeficiency virus 1, MT2, read-out: EC50 K103N/Y181C): 39 nM | EC50 (wild-type HIV-1): 1.2 nM | EC50 (HIV-1 Y181C variant [4]; Human immunodeficiency virus 1, MT2, read-out: EC50, Y181C variant): 39 nM | EC50 (HIV-1 Y181C variant [4]; Human immunodeficiency virus 1, MT2, read-out: EC50 Y181C): 39 nM

Cc1ccnc2c1NC(=O)c1cccnc1N2C1CC1 [nevirapine]
CC50 [5]: > 100000 nM | CC50 (MT-2 human T-cells): > 100000 nM

Cc1cc(/C=C/C#N)cc(C)c1Nc1ccnc(Nc2ccc(C#N)cc2)n1 [rilpivirine, reference compound]
S [6]: 50 nM
